In patent US12545639B2, “3-substituted phenylamidine compounds, preparation and use thereof” (PI INDUSTRIES LTD., priority 2019, dated 2026):

Legend:
[1] = tested on: Pyricularia oryzae; test: microbe, parasite or virus in culture; format: cell-based; conditions: 168 h, read-out: control compared to the untreated check (radial growth)
[2] = tested on: Rhizoctonia solani; test: Rhizoctonia solani (rice sheath blight/potato black scurf) in vitro test, radial growth on potato dextrose agar; format: cell-based; conditions: 168 h, 300 ppm in potato dextrose agar, 25° C., 60% relative humidity, seven days, read-out: control compared to the untreated check (radial growth)
[3] = tested on: Alternaria solani; test: Alternaria solani (early blight of tomato/potato) in vitro test, radial growth on potato dextrose agar; format: cell-based; conditions: 168 h, 300 ppm in potato dextrose agar, 25° C., 60% relative humidity, seven days, read-out: control compared to the untreated check (radial growth)
[4] = tested on: Colletotrichum capsici; test: Colletotrichum capsici (anthracnose) in vitro test, radial growth on potato dextrose agar; format: cell-based; conditions: Colletotrichum truncatum, 168 h; 300 ppm in potato dextrose agar; 25° C., 60% relative humidity, seven days; read-out: control compared to the untreated check (radial growth)
[5] = tested on: Botrytis cinerea; test: Botrytis cinerea (gray mold) in vitro test, radial growth on potato dextrose agar; format: cell-based; conditions: 168 h, 300 ppm in potato dextrose agar, 22° C., 90% relative humidity, seven days, read-out: control compared to the untreated check (radial growth)
[6] = tested on: Septoria lycopersici/Corynespora cassicola (CORYCA); test: Septoria lycopersici/Corynespora cassicola (CORYCA) (leaf spot of tomato) in vitro test, radial growth on potato dextrose agar; format: cell-based; conditions: 168 h, 300 ppm in potato dextrose agar, 25° C., 70% relative humidity, seven days, read-out: control compared to the untreated check (radial growth)
[7] = tested on: Phakopsora pachyrhizi; test: Phakopsora pachyrhizi test in soybean, preventive, in vivo on plants; conditions: in Glycine max, read-out: Efficacy (% control), disease severity compared to the untreated check

CCN(C)C=Nc1cc(C)cc(N(C)c2ccccc2F)c1C [Compound 7, N-ethyl-N′-(3-((2-fluorophenyl)(methyl)amino)-2,5-dimethylphenyl)-N-methylformimidamide]
≥ 70%: inhibition of growth at 300 ppm [1] | inhibition of growth at 300 ppm [2] | inhibition of growth at 300 ppm [3] | inhibition of growth at 300 ppm [4]

CCN(C)C=Nc1cc(C)cc(Nc2ccc(F)cc2F)c1Cl [Compound 75, N′-(2-chloro-3-((2,4-difluorophenyl)amino)-5-methylphenyl)-N-ethyl-N-methylformimidamide]
≥ 70%: inhibition of growth at 300 ppm [1] | inhibition of growth at 300 ppm [2] | inhibition of growth at 300 ppm [3] | inhibition of growth at 300 ppm [4]

CCN(C)C=Nc1cc(F)cc(Cc2ccccc2)c1C [Compound 149, N′-(3-benzyl-5-fluoro-2-methylphenyl)-N-ethyl-N-methylformimidamide]
≥ 70%: inhibition of growth at 300 ppm [1] | inhibition of growth at 300 ppm [2] | inhibition of growth at 300 ppm [5] | inhibition of growth at 300 ppm [3] | inhibition of growth at 300 ppm [6] | pest or weed control at 500 ppm [7]

CCN(C)C=Nc1cc(F)cc(Nc2ccc(OC)c(F)c2)c1C [Compound 254, N-ethyl-N′-(5-fluoro-3-((3-fluoro-4-methoxyphenyl)amino)-2-methylphenyl)-N-methylformimidamide]
≥ 70%: inhibition of growth at 300 ppm [1] | inhibition of growth at 300 ppm [2] | inhibition of growth at 300 ppm [3] | inhibition of growth at 300 ppm [4]

CCN(C)C=Nc1cc(OC)cc(Cc2cccc(C(F)(F)F)c2)c1C [Compound 296, N-ethyl-N′-(5-methoxy-2-methyl-3-(3-(trifluoromethyl)benzyl)phenyl)-N-methylformimidamide]
≥ 70%: inhibition of growth at 300 ppm [1] | inhibition of growth at 300 ppm [2] | inhibition of growth at 300 ppm [5] | inhibition of growth at 300 ppm [3] | inhibition of growth at 300 ppm [6] | pest or weed control at 500 ppm [7]

CCN(C)C=Nc1cc(F)cc(Cc2ccccc2Br)c1C [Compound 151, N′-(3-(2-bromobenzyl)-5-fluoro-2-methylphenyl)-N-ethyl-N-methylformimidamide]
≥ 70%: inhibition of growth at 300 ppm [1] | inhibition of growth at 300 ppm [2] | inhibition of growth at 300 ppm [5] | inhibition of growth at 300 ppm [3] | inhibition of growth at 300 ppm [6] | pest or weed control at 500 ppm [7]

CCN(C)C=Nc1cc(F)cc(Cc2cccc([N+](=O)[O-])c2)c1C [Compound 259, N-ethyl-N′-(5-fluoro-2-methyl-3-(3-nitrobenzyl)phenyl)-N-methylformimidamide]
≥ 70%: inhibition of growth at 300 ppm [1] | inhibition of growth at 300 ppm [2] | inhibition of growth at 300 ppm [5] | inhibition of growth at 300 ppm [3] | inhibition of growth at 300 ppm [6] | pest or weed control at 500 ppm [7]

CCN(C)C=Nc1cc(F)cc(Nc2ccc3ncsc3c2)c1C [Compound 225, N′-(3-(benzo[d]thiazol-6-ylamino)-5-fluoro-2-methylphenyl)-N-ethyl-N-methylformimidamide]
≥ 70%: inhibition of growth at 300 ppm [1] | inhibition of growth at 300 ppm [3] | inhibition of growth at 300 ppm [4]

CCN(C)C=Nc1cc(F)cc(Cc2cccc(Br)c2)c1C [Compound 205, N′-(3-(3-bromobenzyl)-5-fluoro-2-methylphenyl)-N-ethyl-N-methylformimidamide]
≥ 70%: inhibition of growth at 300 ppm [1] | inhibition of growth at 300 ppm [2] | inhibition of growth at 300 ppm [5] | inhibition of growth at 300 ppm [3] | inhibition of growth at 300 ppm [6] | pest or weed control at 500 ppm [7]

CCN(C)C=Nc1cc(F)cc(Cc2ccc(Cl)c(F)c2)c1C [Compound 206, N′-(3-(4-chloro-3-fluorobenzyl)-5-fluoro-2-methylphenyl)-N-ethyl-N-methylformimidamide]
≥ 70%: inhibition of growth at 300 ppm [1] | inhibition of growth at 300 ppm [2] | inhibition of growth at 300 ppm [5] | inhibition of growth at 300 ppm [3] | inhibition of growth at 300 ppm [6] | pest or weed control at 500 ppm [7]

CCN(C)C=Nc1cc(F)cc(N(C)c2c(C)cccc2F)c1C [Compound 145, N-ethyl-N′-(5-fluoro-3-((2-fluoro-6-methylphenyl)(methyl)amino)-2-methylphenyl)-N-methylformimidamide]
≥ 70%: inhibition of growth at 300 ppm [1] | inhibition of growth at 300 ppm [2] | inhibition of growth at 300 ppm [5] | inhibition of growth at 300 ppm [3] | inhibition of growth at 300 ppm [6] | pest or weed control at 500 ppm [7]

CCN(C)C=Nc1cc(Cl)cc(Nc2cccc(C(F)(F)F)n2)c1C [Compound 274, N′-(5-chloro-2-methyl-3-((6-(trifluoromethyl)pyridin-2-yl)amino)phenyl)-N-ethyl-N-methylformimidamide]
≥ 70%: inhibition of growth at 300 ppm [1] | inhibition of growth at 300 ppm [2] | inhibition of growth at 300 ppm [5] | inhibition of growth at 300 ppm [3] | inhibition of growth at 300 ppm [6] | pest or weed control at 500 ppm [7]

CCN(C)C=Nc1cc(Cl)cc(Nc2ccccc2OC(F)(F)F)c1C [Compound 301, N′-(5-chloro-2-methyl-3-((2-(trifluoromethoxy)phenyl)amino)phenyl)-N-ethyl-N-methylformimidamide]
≥ 70%: inhibition of growth at 300 ppm [1] | inhibition of growth at 300 ppm [2] | inhibition of growth at 300 ppm [5] | inhibition of growth at 300 ppm [3] | inhibition of growth at 300 ppm [6] | pest or weed control at 500 ppm [7]

CCN(C)C=Nc1cc(F)cc(Cc2cccc(C)c2)c1C [Compound 146, N-ethyl-N′-(5-fluoro-2-methyl-3-(3-methylbenzyl)phenyl)-N-methylformimidamide]
≥ 70%: inhibition of growth at 300 ppm [1] | inhibition of growth at 300 ppm [2] | inhibition of growth at 300 ppm [5] | inhibition of growth at 300 ppm [3] | inhibition of growth at 300 ppm [6] | pest or weed control at 500 ppm [7]

CCN(C)C=Nc1cc(C)cc(Cc2cccc(F)c2)c1Cl [Compound 22, N′-(2-chloro-3-(3-fluorobenzyl)-5-methylphenyl)-N-ethyl-N-methylformimidamide]
≥ 70%: inhibition of growth at 300 ppm [1] | inhibition of growth at 300 ppm [2] | inhibition of growth at 300 ppm [5] | inhibition of growth at 300 ppm [3] | inhibition of growth at 300 ppm [6] | pest or weed control at 500 ppm [7]

CCN(C)C=Nc1cc(C)cc(Cc2ccccc2)c1Cl [Compound 70, N′-(3-benzyl-2-chloro-5-methylphenyl)-N-ethyl-N-methylformimidamide]
≥ 70%: inhibition of growth at 300 ppm [1] | inhibition of growth at 300 ppm [2] | inhibition of growth at 300 ppm [5] | inhibition of growth at 300 ppm [3] | inhibition of growth at 300 ppm [6] | pest or weed control at 500 ppm [7]

CCN(C)C=Nc1cc(F)cc(Cc2cc(F)cc(OC)c2)c1C [Compound 237, N-ethyl-N′-(5-fluoro-3-(3-fluoro-5-methoxybenzyl)-2-methylphenyl)-N-methylformimidamide]
≥ 70%: inhibition of growth at 300 ppm [1] | inhibition of growth at 300 ppm [2] | inhibition of growth at 300 ppm [5] | inhibition of growth at 300 ppm [3] | inhibition of growth at 300 ppm [6] | pest or weed control at 500 ppm [7]

CCN(C)C=Nc1cc(Cl)cc(N(C)c2ccccc2C)c1C [Compound 191, N′-(5-chloro-2-methyl-3-(methyl(o-tolyl)amino)phenyl)-N-ethyl-N-methylformimidamide]
≥ 70%: inhibition of growth at 300 ppm [1] | inhibition of growth at 300 ppm [2] | inhibition of growth at 300 ppm [5] | inhibition of growth at 300 ppm [3] | inhibition of growth at 300 ppm [6] | pest or weed control at 500 ppm [7]

CCN(C)C=Nc1cc(F)cc(Nc2cccc(C(F)(F)F)n2)c1C [Compound 273, N-ethyl-N′-(5-fluoro-2-methyl-3-((6-(trifluoromethyl)pyridin-2-yl)amino)phenyl)-N-methylformimidamide]
≥ 70%: inhibition of growth at 300 ppm [1] | inhibition of growth at 300 ppm [2] | inhibition of growth at 300 ppm [5] | inhibition of growth at 300 ppm [3] | inhibition of growth at 300 ppm [6] | pest or weed control at 500 ppm [7]

CCN(C)C=Nc1cc(C)cc(Nc2ccc(OC)cc2)c1Cl [Compound 61, N′-(2-chloro-3-((4-methoxyphenyl)amino)-5-methylphenyl)-N-ethyl-N-methylformimidamide]
≥ 70%: inhibition of growth at 300 ppm [1] | inhibition of growth at 300 ppm [2] | inhibition of growth at 300 ppm [3] | inhibition of growth at 300 ppm [4]

CCN(C)C=Nc1cc(C)cc(N(C)c2cccc(C)c2F)c1Cl [Compound 139, N′-(2-chloro-3-((2-fluoro-3-methylphenyl)(methyl)amino)-5-methylphenyl)-N-ethyl-N-methylformimidamide]
≥ 70%: inhibition of growth at 300 ppm [1] | inhibition of growth at 300 ppm [4]

CCN(C)C=Nc1cc(F)cc(Nc2cccc(F)c2)c1C [Compound 29, N-ethyl-N′-(5-fluoro-3-((3-fluorophenyl)amino)-2-methylphenyl)-N-methylformimidamide]
≥ 70%: inhibition of growth at 300 ppm [1] | inhibition of growth at 300 ppm [2] | inhibition of growth at 300 ppm [5] | inhibition of growth at 300 ppm [3] | inhibition of growth at 300 ppm [6] | pest or weed control at 500 ppm [7]

CCN(C)C=Nc1cc(F)cc(Cc2ccccc2C)c1C [Compound 148, N-ethyl-N′-(5-fluoro-2-methyl-3-(2-methylbenzyl)phenyl)-N-methylformimidamide]
≥ 70%: inhibition of growth at 300 ppm [1] | inhibition of growth at 300 ppm [2] | inhibition of growth at 300 ppm [5] | inhibition of growth at 300 ppm [3] | inhibition of growth at 300 ppm [6] | pest or weed control at 500 ppm [7]
